Laboratory results reported in US8975411B2, “Therapeutic agent for neurological diseases” (Neugen Pharma Inc., priority 2010, dated 2015).
In brackets after ≈: the same amount, converted by molar mass.

How the values were obtained:
[1] = system: ALS-SOD1^H46R transgenic mice; assay: In vivo drug efficacy test: survival period after the onset of disease; settings: for survival period after the onset of disease: control 33.4±3.2 days; for survival benefit versus control group: 0.01, 0.1 and 1 mg/kg orally once per day from onset
Method: (§1) In this test, ALS-SOD1^H46R transgenic mice carrying and expressing ALS1 pathological SOD1 gene (SOD1^H46R) were used. The mice were housed at 23° C. with a 12 hours light/dark cycle. […] Each compound was dissolved in sterilized water, and subsequently an administration solution was prepared with physiological saline. The dose of each compound was 0.01 mg, 0.1 mg and 1 mg/5 ml/kg per body weight of each individual and the compounds were orally administered once per day until an individual dies (compound-administered group). Mice to which physiological saline (5 ml/kg) alone was administered were used as a control group. As an evaluation method for expression of a neurological sign, a balance beam test (a stainless steel bar of 50 cm in length and 0.9 cm in width) was used.
(§2) Each of the mice was subjected to the test and grade 3 was determined as onset of disease. The motor function of the mice in the compound-administered groups and the control group was evaluated based on a vertical pole test and footprint analysis.

[2] = Evaluation of solubility in the 1st fluid (pH1.2) of the Japanese pharmacopeia; format: physicochemical; settings: 1st fluid (pH 1.2) of the Japanese Pharmacopeia, pH 1.2, simulated gastric fluid, thermodynamic from solid, 25° C.
Method: Using the same compounds as in Experimental Example 1, solubility in the 1st fluid (pH1.2) of the Japanese pharmacopeia was measured. The 1st fluid of the Japanese Pharmacopeia was prepared by dissolving sodium chloride in hydrochloric acid (7.0 mL) and water and adjusting the total amount to 1000 mL. The 1st fluid of the Japanese Pharmacopeia (0.6 mL) was poured in a tube and a compound was added until a precipitate was observed. Then, the tube was shaken at 25° C. for 24 hours (200 rotations/minute) to obtain a compound solution. The compound solution was added to a 96-well plate to which a 0.22 μm filter (manufactured by Millipore) was set and centrifugally filtrated (2700 rotations/minute, 10 minutes). Thereafter, the concentration of the compound in the filtrate was obtained from the peak area obtained by HPLC analysis. The solution for a calibration curve was prepared by dissolving a compound in DMSO.
(§3) HPLC analysis conditions will be described below.
Column: TSKgel ODS-80Tm, 4.6×150 mm (manufactured by Tohso Corporation)
Column temperature: 40° C.
Mobile phase: 20 mM sodium 1-decanesulfonate, 40 mM phosphoric acid, 0.2% trimethylamine/acetonitrile

[3] = system: ALS-SOD1^H46R transgenic mice; assay: In vivo drug efficacy test: vertical pole test (motor function); settings: 21 weeks of age compared with 17 weeks of age, control significantly reduced
Method: as §1, §2
The vertical pole test (stainless steel bar of 50 cm in length and 0.9 cm in width was used) was started when the test mice became 17 weeks of age and carried out once a week. Each mouse was given five trials (noted that a maximum value was 45 cm, and when a mouse reached the vertical ascending distance of 45 cm, the trial was terminated at that point). The maximum value of the 5 trials was defined as motor function value.

[4] = system: Human neuroblastoma SH-SY5Y cells; assay: Oxidative stress-mediated cell death suppressive (AOSCD) activity in differentiated nerve cells, menadione, AlamarBlue; format: cell-based; settings: RA-differentiated SH-SY5Y cells, compound 24 hours before menadione, 4 hours oxidative stress treatment, read-out: ED50 (the source's name)
Method: A test was performed by using the same compounds as in Test Example 1. Human neuroblastoma SH-SY5Y cells (ATCC, CRL2266 strain) were cultured in DMEM medium (manufactured by Wako Pure Chemical Industries Ltd.) containing 10% FBS, 100 μg/mL streptomycin and 100 U/mL penicillin G. SH-SY5Y cells were suspended in a DMEM/10% FBS medium, seeded in a cell density of 0.75×10^4 cells/well in a 96-well microplate and cultured in the presence of 5% CO2 at 37° C. for 24 hours. Thereafter, the medium was exchanged with DMEM/10% FBS (DMEM/FBS/RA) medium containing 10 μM all-trans-retinoic acid (RA). At the fifth day, each compound was added so as to obtain 2, 4, 6, 8, 10, 20, 30, 40, 50, 60, 80 μM (final concentration) and culture was performed. Note that, in this experiment, a sample in which DMSO alone was added was used as a negative control.
After 24 hours, an oxidative stress agent, menadione, was added so as to obtain a final concentration of 0, 30, 40, 60 and 80 μM and culture was continued in the presence of 5% CO2 at 37° C. (oxidative stress treatment) Cells treated with a 0.1% Triton X-100/DMEM/FBS/RA medium in place of menadione was used as a blank in this assay. After an oxidative stress treatment for 4 hours, the medium was replaced with a medium containing 10% AlamarBlue and culture was performed in the presence of 5% CO2 at 37° C. Twelve hours later, fluorescent was measured at an excitation wavelength of 530 nm/detection wavelength of 580 nm by use of CYTOFLUOR (registered trade mark) Multi-Well Plate Reader Series 4000 to quantify oxidative stress-mediated cell death suppressive (AOSCD) activity. In accordance with a conventional method, ED50 (Effective Dose) (μM) was calculated.

[5] = Evaluation of blood-brain barrier permeability (concentration in brain after oral administration, HPLC); format: in vivo; settings: male C57BL/6N mice, 100 mg/kg once orally, fasting
Method: For evaluation of blood-brain barrier permeability, pharmacokinetics (the concentration in brain) in mice was analyzed. In the test, male C57BL/6N mice (at 8 weeks of age) were used. Each compound was suspended in 0.5% sodium carboxymethylcellulose (CMC-Na). The dosage amount was 100 mg/kg per body weight of each mouse. Each compound was administered once orally under fasting conditions. At the time points of 30 minutes and one hour after administration, blood was collected from the heart of each mouse. Subsequently, perfusion was performed using physiological saline containing 10% heparin and thereafter the brain was removed. Serum was obtained by centrifuging the blood sample and brain was lyophilized with liquid nitrogen, both of which were stored at −80° C. until use.
Next, as a pre-treatment for HPLC analysis, deproteinization treatment was performed. Acetonitrile was added to the brain sample and homogenization treatment was performed to grind the brain. The resultant sample was centrifuged (10,000×g, 10 min, 4° C.) and the supernatant was collected, allowed to stand still at −80° C. for 10 minutes, thawed and then centrifuged again (10,000×g, 10 min, 4° C.). The obtained supernatant was dried under vacuum. The vacuum-dried sample was dissolved in a 10 mM phosphate buffer (pH7.0) containing 30-50% acetonitrile, allowed to stand still at −80° C. for 10 minute, thawed again and centrifuged at (10,000×g, 10 min, 4° C.) and the supernatant was collected. Furthermore, filtration treatment by a 0.45 μm filter and centrifugation (10,000×g, 4 min, 4° C.) were performed and subsequently filtration treatment by a 0.22 μm filter and centrifugation (10,000×g, 4 min, 4° C.) were performed. The supernatant was then collected and subjected to HPLC analysis. A standard curve was prepared by using the brain of the same type mouse to which none of the compounds was administered.
as §3
Column: CAPCELL PAK C18, 4.6 mm I.D.×150 mm (SHISEIDO)
Eluate: 10 mM phosphate buffer/acetonitrile (30-50%)
Dilution solution: 10 mM phosphate
buffer/acetonitrile (30-50%)

[6] = system: ALS-SOD1^H46R transgenic mice; assay: In vivo drug efficacy test: footprint analysis (ambulation); settings: 22 weeks of age compared with 18 weeks of age, control showed abnormal ambulation
Method: as §1, §2
Mice of the administered groups and the control group were subject to footprint analysis at 18 weeks and 22 weeks of age. Blue ink and red ink were applied respectively to the front and hind paws of the test mouse and the mouse was then allowed to walk on paper. From the footprint, irregularity of walking was observed. Data was analyzed by use of GraphPad Prism 5 and SPSS 17.0.

[7] = 0.01 mg/kg orally once per day from onset
[8] = 0.1 mg/kg orally once per day from onset
[9] = 1 mg/kg orally once per day from onset

With Cc1cc(C)c(O[C@H](C)C(=O)Nc2nc(-c3ccccn3)c[nH]2)c(C)c1 [Compound 10, (2R)-2-(mesityloxy)-N-[4-(pyridin-2-yl)-1H-imidazol-2-yl]propanamide] the “survival period after the onset of disease” value (“survival period” for short) [1, 7] was 43.7 ± 7.5 days, the “survival period” value [1, 8] was 47.7 ± 6.9 days and the “survival period” value [1, 9] was 41.8 ± 10.5 days. For the same molecule, the “survival benefit versus control group” value [1] was “significant survival benefit”, the solubility at 24 h [2] was 7880 µg/mL (≈ 22.5 mM) and the “motor function by vertical pole test” value [3, 8] was “relatively retained”. For the same molecule, the EC50 [4] was 8 µM, the “Amount of blood brain barrier permeation” value ([5]; 0.5 h after administration) was 256 ng/100 μg and the “Amount of blood brain barrier permeation” value ([5]; 1 h after administration) was 225 ng/100 μg. For the same molecule, the “ambulation by footprint analysis” value [6, 8] was “no significant change of ambulation”.

With Cc1cc(C)c(O[C@@H](C)C(=O)Nc2nc(-c3ccccn3)c[nH]2)c(C)c1 [Compound 11, (2S)-2-(mesityloxy)-N-[4-(pyridin-2-yl)-1H-imidazol-2-yl]propanamide] the solubility at 24 h [2] was 7980 µg/mL (≈ 22.8 mM), the EC50 [4] was 4 µM and the “Amount of blood brain barrier permeation” value ([5]; 0.5 h after administration) was 478 ng/100 μg. For the same molecule, the “Amount of blood brain barrier permeation” value ([5]; 1 h after administration) was 372 ng/100 μg.

With Cc1cc(C)c(OC(C)(C)C(=O)Nc2nc(-c3ccccn3)c[nH]2)c(C)c1 [Compound 12, 2-(mesityloxy)-2-methyl-N-[4-(pyridin-2-yl)-1H-imidazol-2-yl]propanamide] the “survival period” value [1, 7] was 36.2 ± 4.0 days, the “survival period” value [1, 8] was 38.8 ± 4.3 days and the “survival period” value [1, 9] was 41.0 ± 7.9 days. The “survival benefit versus control group” value [1] was “significant survival benefit”, the solubility at 24 h [2] was 3760 µg/mL (≈ 10.3 mM) and the “motor function by vertical pole test” value [3, 7] was “relatively retained”. For the same molecule, the EC50 [4] was 4 µM, the “Amount of blood brain barrier permeation” value ([5]; 0.5 h after administration) was 258 ng/100 μg and the “Amount of blood brain barrier permeation” value ([5]; 1 h after administration) was 133 ng/100 μg. The “ambulation by footprint analysis” value [6, 7] was “no significant change of ambulation”.

In the case of Cc1cc(C)c(N(C)CC(=O)Nc2nc(-c3ccccn3)c[nH]2)c(C)c1 [Compound 14, 2-[mesityl(methyl)amino]-N-[4-(pyridin-2-yl)-1H-imidazol-2-yl]acetamide], the “survival period” value [1, 7] is reported as 44.5 ± 3.4 days, the “survival period” value [1, 8] is reported as 42.2 ± 4.5 days and the “survival period” value [1, 9] is reported as 42.5 ± 2.9 days. For the same molecule, the “survival benefit versus control group” value [1] was “significant survival benefit”, the solubility at 24 h [2] was 3070 µg/mL (≈ 8.79 mM) and the “motor function by vertical pole test” value [3, 7] was “relatively retained”. For the same molecule, the EC50 [4] was 4 µM, the “Amount of blood brain barrier permeation” value ([5]; 0.5 h after administration) was 519 ng/100 μg and the “Amount of blood brain barrier permeation” value ([5]; 1 h after administration) was 370 ng/100 μg. The “ambulation by footprint analysis” value [6, 7] was “no significant change of ambulation”.

For Cc1cc(C)c(NCC(=O)Nc2nc(-c3ccccn3)c[nH]2)c(C)c1 [Compound 22, 2-(mesitylamino)-N-(4-pyridin-2-yl-1H-imidazol-2-yl)acetamide], the solubility at 24 h [2] was 1810 µg/mL (≈ 5.4 mM), the EC50 [4] was 21 µM and the “Amount of blood brain barrier permeation” value ([5]; 0.5 h after administration) was 108 ng/100 μg. The “Amount of blood brain barrier permeation” value ([5]; 1 h after administration) was 16 ng/100 μg.

For Cc1cc(C)c(OCC(=O)Nc2nc(-c3ccccn3)c[nH]2)c(C)c1 [Compound (Ie), 2-(mesityloxy)-N-[4-(pyridin-2-yl)-1H-imidazol-2-yl]acetamide, reference compound], the solubility at 24 h [2] was 610 µg/mL (≈ 1.81 mM), the EC50 [4] was 6 µM and the “Amount of blood brain barrier permeation” value ([5]; 0.5 h after administration) was 27 ng/100 μg. For the same molecule, the “Amount of blood brain barrier permeation” value ([5]; 1 h after administration) was 8 ng/100 μg.

With Cc1cc(C)c(OCC(=O)Nc2nc(-c3ccccn3)cs2)c(C)c1 [Compound (X), 2-(mesityloxy)-N-(4-pyridin-2-yl-1,3-thiazol-2-yl)acetamide, reference compound] the solubility at 24 h [2] was 30 µg/mL (≈ 0.0849 mM), the EC50 [4] was 20 µM and the “Amount of blood brain barrier permeation” value ([5]; 0.5 h after administration) was 62 ng/100 μg. For the same molecule, the “Amount of blood brain barrier permeation” value ([5]; 1 h after administration) was 26 ng/100 μg.
